Data: patent US6512166B1, “Combinations of fungal cell wall degrading enzyme and fungal cell membrane affecting compound” (priority 1991, dated 2003)
Where two headings read alike, the source gives them in different places.

Tests used:
[1] = test system: Fusarium oxysporum strain FOP1; test: Inhibition of spore germination, ELISA plate assay (Examples V-XIV, XVII); type: cell-based; conditions: Table 29; concentration of miconazole for 50% inhibition, alone or with enzyme at its ED10 concentration
Method: (§1) The concentration where fungal cell wall degrading enzyme individually provides a specified percentage fungal inhibition or where antifungal fungal cell membrane affecting compound individually provides a specific percentage fungal inhibition can be determined as follows: Assays are performed under sterile conditions. Equal volumes of spore suspensions, 3× potato dextrose broth, and the test solution or suspension in 5 mM Tris-HCl (pH 6.0) or 5 mM potassium phosphate buffer (pH 6.7) are mixed. The control is the same as the test solution except for the control the antifungal agent is omitted. The assay mixtures (total volume 45 or 30 μl) are incubated on flat-bottomed ELISA plates, each containing 96 wells, with 2,000 to 3,000 spores per well, at 25° C. After 22 to 30 hours, the plates are placed under an inverted microscope. The percentage of conidia germinating is determined as the percentage of the first 100 spores randomly found in a well. In addition, the lengths of 20 germ tubes are measured and averaged. All experiments are performed twice, with three replicates for each treatment. The inhibition values obtained in the two experiments are combined and averaged, and standard deviations are calculated from the 6 data points. The values obtained for the control are taken as 0% inhibition and all other values are divided by the values obtained for the control and multiplied by 100% to obtain percent inhibition. Determination of concentration corresponding to a particular percent inhibition is carried out by subjecting dose-response curves to regression analysis by using a binomial regression of the third order, with R^2 ranging between 0.95 and 0.99.
(§2) Assays were carried out by the procedure described in the summary of the invention section. Dose response curves were obtained by probit analysis of data collected from two separate experiments with each experiment involving three treatment replicates.
(§3) Dose response curves were determined for each antifungal fungal cell membrane affecting compound and for each fungal cell wall degrading enzyme singly. Then each fungal cell wall degrading enzyme at a concentration giving 10% inhibition when used alone was combined with increasing amounts of antifungal fungal cell membrane affecting compound. Then the concentration of antifungal fungal cell membrane affecting compound causing the ED50 for each combination was calculated by probit analysis of data collected from two experiments with three treatment replicates for each experiment. Assays for inhibition of spore germination were carried out as described in the summary of invention section above.
The relative level of synergism (RS below) for each combination was calculated by applying Limpel's formula: Ee=X+Y−(XY/100) as described in Richer, D. L, Pestic. Sci. 19, 309-315, 1987. In Limpel's formula, X and Y are the percentages of inhibition relative to each compound used alone and Ee is the expected effect for an additional (non-synergistic) effect. If the combination of the two agents produces an observed effect (Eo) greater than Ee, synergism exists, and as the difference between Eo and Ee increases, the level of synergism is greater. In this experiment, the X value (percentage inhibition by fungal cell wall degrading enzyme when used alone was chosen to be 10 (10% inhibition of spore germination when used alone) and the observed effect, Eo, was 50 (i.e., 50% inhibition of spore germination). The Y values were obtained from the determined concentrations of antifungal cell membrane affecting compound causing the ED50 for a combination and the dose response curves for the antifungal cell membrane affecting compound used alone—i.e., the Y value was the percent inhibition for the antifungal fungal cell membrane affecting compound when used alone for the concentration of antifungal fungal cell membrane affecting compound that was determined to cause the ED50 for the combination. Ee values were then calculated from Limpel's formula. […]

[2] = Solubility, guidance for forming solutions
Excerpt: Compositions for use in the systems herein are readily formulated by admixing the fungal cell wall degrading enzymes and the antifungal fungal cell membrane affecting compounds with non-toxic carriers appropriate for the particular use for a composition, e.g., agriculturally acceptable carriers for agricultural uses and pharmaceutically acceptable carriers for medicinal uses. They may be formulated as liquids (solutions or suspensions) or as solids. Since the fungal cell wall degrading enzymes need free water for activity, water must be present at the time of function. […] Water is a preferred vehicle where components are soluble in it. […] Organic solvents can also be used and may be required in some cases if a solution is desired. Guidance for forming solutions follows. […] Suspension can also be employed.

Botrytis cinerea = test: Inhibition of spore germination, Eppendorf tube assay (Examples I and II); type: cell-based; conditions: for expected percent inhibition for an additive response (Limpel's formula) at 0.5 µg/mL: read-out: Ee, expected effect from an additive response according to Limpel's formula, percent inhibition; for ED50 of fungicide (dose effective for 50% inhibition): Table 9
B. cinerea strain 12 = test: Inhibition of spore germination, ELISA plate assay (Examples III-XVI, XVIII); type: cell-based, Botrytis cinerea; conditions: Table 21; concentration of miconazole for 50% inhibition, alone or with enzyme at its ED10 concentration
Method: as §1, §2
Each of 8 antifungal fungal cell membrane affecting compounds were used in combination with each of 8 or 6 fungal cell wall degrading enzymes to provide 50% inhibition (ED50) of B. cinerea strain 12 spore germination. Each fungal cell wall degrading enzyme was used at a concentration giving 10% inhibition of spore germination when used alone in combination with an amount of antifungal fungal cell membrane affecting compound so the combination gave 50% inhibition of spore germination.
as §3
The relative level of synergism (RS below) for each combination was calculated by applying Limpel's formula: Ee=X+Y−(XY/100) as described in Richer, D. L, Pestic. Sci. 19, 309-315, 1987. In Limpel's formula, X and Y are the percentages of inhibition relative to each compound used alone and Ee is the expected effect for an additional (non-synergistic) effect. If the combination of the two agents produces an observed effect (Eo) greater than Ee, synergism exists, and as the difference between Eo and Ee increases, the level of synergism is greater. […]

Clc1ccc(COC(Cn2ccnc2)c2ccc(Cl)cc2Cl)c(Cl)c1 (stereo not drawn) [Miconazole, miconazole]
ED50 [1]: 5.0 (4.5-5.5) ng ml^−1
solubility (solvent in which the substance dissolves) [2]: dissolves in 50% (v:v) ethanol
inhibition at 0.5 µg/mL (Botrytis cinerea; Botrytis cinerea, Table 4, enzyme 0 μg ml^−1 (fungicide alone), flusilazole 5 ng ml^−1, miconazole 0.5 μg ml^−1, read-out: % inhibition): 19%
inhibition at 0.5 µg/mL (Botrytis cinerea; Botrytis cinerea, Table 5, endochitinase from G. virens strain 41 at 25 μg ml^−1, with flusilazole 5 ng ml^−1, miconazole 0.5 μg ml^−1 or none (enzyme alone), read-out: % inhibition): 99%
inhibition at 0.5 µg/mL (Botrytis cinerea; Botrytis cinerea, Table 5, enzyme 0 μg ml^−1 (fungicide alone), flusilazole 5 ng ml^−1, miconazole 0.5 μg ml^−1, read-out: % inhibition): 19%
inhibition at 0.5 µg/mL (Botrytis cinerea; Botrytis cinerea, Table 6, enzyme 0 μg ml^−1 (fungicide alone), flusilazole 5 ng ml^−1, miconazole 0.5 μg ml^−1, read-out: % inhibition): 19%
inhibition at 0.5 µg/mL (Botrytis cinerea; Botrytis cinerea, Table 7, enzyme 0 μg ml^−1 (fungicide alone), flusilazole 5 ng ml^−1, miconazole 0.5 μg ml^−1, read-out: % inhibition): 19%
expected percent inhibition for an additive response (Limpel's formula) at 0.5 µg/mL (Botrytis cinerea; Botrytis cinerea, with Chitob. (P1) 25 μg ml^−1, flusilazole 5 ng ml^−1, miconazole 0.5 μg ml^−1): 27.9%
inhibition at 0.5 µg/mL (Botrytis cinerea; Botrytis cinerea, with Chitob. (P1) 25 μg ml^−1, flusilazole 5 ng ml^−1, miconazole 0.5 μg ml^−1, read-out: Io, percent inhibition observed): 85%
expected percent inhibition for an additive response (Limpel's formula) at 0.5 µg/mL (Botrytis cinerea; Botrytis cinerea, with Endoc. (41) 25 pg ml^−1 (so in the source), flusilazole 5 ng ml^−1, miconazole 0.5 μg ml^−1): 19%
inhibition at 0.5 µg/mL (Botrytis cinerea; Botrytis cinerea, with Endoc. (41) 25 pg ml^−1 (so in the source), flusilazole 5 ng ml^−1, miconazole 0.5 μg ml^−1, read-out: Io, percent inhibition observed): 66%
expected percent inhibition for an additive response (Limpel's formula) at 0.5 µg/mL (Botrytis cinerea; Botrytis cinerea, with Endoc. (P1) 25 μg ml^−1, flusilazole 5 ng ml^−1, miconazole 0.5 μg ml^−1): 42.5%
inhibition at 0.5 µg/mL (Botrytis cinerea; Botrytis cinerea, with Endoc. (P1) 25 μg ml^−1, flusilazole 5 ng ml^−1, miconazole 0.5 μg ml^−1, read-out: Io, percent inhibition observed): 100%
expected percent inhibition for an additive response (Limpel's formula) at 0.5 µg/mL (Botrytis cinerea; Botrytis cinerea, with Glucan. (P1) 25 μg ml^−1, flusilazole 5 ng ml^−1, miconazole 0.5 μg ml^−1): 23%
inhibition at 0.5 µg/mL (Botrytis cinerea; Botrytis cinerea, with Glucan. (P1) 25 μg ml^−1, flusilazole 5 ng ml^−1, miconazole 0.5 μg ml^−1, read-out: Io, percent inhibition observed): 70%
inhibition at 0.5 µg/mL (Botrytis cinerea; Table 4, endochitinase from T. harzianum strain P1 at 75 μg ml^−1, with flusilazole 5 ng ml^−1, miconazole 0.5 μg ml^−1 or none (enzyme alone), read-out: % inhibition): 100%
inhibition at 0.5 µg/mL (Botrytis cinerea; Table 6, chitobiosidase from T. harzianum strain P1 at 75 μg ml^−1, with flusilazole 5 ng ml^−1, miconazole 0.5 μg ml^−1 or none (enzyme alone), read-out: % inhibition): 100%
inhibition at 0.5 µg/mL (Botrytis cinerea; Table 7, glucan 1,3-β-glucosidase from T. harzianum strain P1 at 100 μg ml^−1, with flusilazole 5 ng ml^−1, miconazole 0.5 μg ml^−1 or none (enzyme alone), read-out: % inhibition): 100%
ED50 of fungicide (dose effective for 50% inhibition) (Botrytis cinerea; no endochitinase (0 μg ml^−1)): 3.0 µg/mL
ED50 of fungicide (dose effective for 50% inhibition) (Botrytis cinerea; with endochitinase from T. harzianum strain P1 at 10 μg ml^−1): 0.06 µg/mL
ED50 of fungicide (dose effective for 50% inhibition) (Botrytis cinerea; with endochitinase from T. harzianum strain P1 at 25 μg ml^−1): 0.04 µg/mL
ED50 of fungicide (Botrytis cinerea; Table 10, no chitobiosidase (0 μg ml^−1)): 3.0 µg/mL
ED50 of fungicide (Botrytis cinerea; Table 10, with chitobiosidase from T. harzianum strain P1 at 25 μg ml^−1): 0.06 µg/mL
ED50 of fungicide (Botrytis cinerea; Table 10, with chitobiosidase from T. harzianum strain P1 at 50 μg ml^−1): 0.045 µg/mL
ED50 of fungicide (Botrytis cinerea; Table 10, with chitobiosidase from T. harzianum strain P1 at 75 μg ml^−1): 0.04 µg/mL
ED50 of fungicide (Botrytis cinerea; Table 10, with chitobiosidase from T. harzianum strain P1 at 100 μg ml^−1): 0.03 µg/mL
ED50 of fungicide (Botrytis cinerea; Table 11, no glucosidase (0 μg ml^−1)): 3.0 µg/mL
ED50 of fungicide (Botrytis cinerea; Table 11, with glucan 1,3-β-glucosidase from T. harzianum strain P1 at 25 μg ml^−1): 0.27 µg/mL
ED50 of fungicide (Botrytis cinerea; Table 11, with glucan 1,3-β-glucosidase from T. harzianum strain P1 at 50 μg ml^−1): 0.04 µg/mL
ED50 of fungicide (Botrytis cinerea; Table 11, with glucan 1,3-β-glucosidase from T. harzianum strain P1 at 75 μg ml^−1): 0.0018 µg/mL
ED50 of fungicide (Botrytis cinerea; Table 12, no endochitinase (0 μg ml^−1)): 3.0 µg/mL
ED50 of fungicide (Botrytis cinerea; Table 12, with endochitinase from G. virens strain 41 at 25 μg ml^−1): 0.092 µg/mL
ED50 of fungicide (Botrytis cinerea; Table 12, with endochitinase from G. virens strain 41 at 50 μg ml^−1): 0.06 µg/mL
ED50 of fungicide (Botrytis cinerea; Table 12, with endochitinase from G. virens strain 41 at 75 μg ml^−1): 0.04 µg/mL
ED50 of fungicide (Botrytis cinerea; Table 12, with endochitinase from G. virens strain 41 at 100 μg ml^−1): 0.025 µg/mL
ED50 (B. cinerea strain 12): 3.0 (2-4) ng ml^−1
